# Assays:
# HIV [1] = assay: microbe, parasite or virus in culture; format: cell-based; settings: Human immunodeficiency virus 1, MT4, 96 h, read-out: EC50 (50% HIV inhibition concentration), MT-4 cells, HIV, cultured four days, MTT; compounds of formula (I) of (A)
# Protocol: A serial dilution series of test samples was prepared in 96-well microplates (50 μL/well).
# 100 μL/well in each case were dispensed onto plates having test samples of 2.5×10^5/mL MT-4 cell suspension, and HIV virus solution was then dispensed thereto in the amount of 50 μL/well. Mixing was performed using a plate mixer and culturing was performed for four days in a CO2 incubator. MTT (3-(4,5-dimethylthiazol-2-yl)-2,5-diphenyltetrazolium bromide) liquid was dispensed into each well in the amount of 30 μL in each case. The reaction was conducted for 1 h in a CO2 incubator. 150 μL of supernatant were removed from each well, taking care not to aspirate any cells. 150 μL of cell solution were added, and thorough mixing was performed with a plate mixer until all the cells had been dissolved. The optical absorbance of the mixed plates was measured at two wavelengths: 560 nm/690 nm, with a microplate reader.
# [2] = system: HIV mutant strain 1 (E138K/G140S/Q148H/N155H); assay: Test Example 2: resistance evaluation test (HeLa-CD4 reporter), mutant strain 1; format: cell-based; settings: FC=EC50 of mutant strain/EC50 of wild strain; HeLa-CD4 cells
# Protocol: (§1) A serial dilution series of test samples in 96-well microplates was prepared (50 […]).
# (§2) 2.5×10^4/mL of HeLa-CD4 cell suspension was dispensed into each of the microplates containing test sample, in the amount of 100 μL/well, and HIV virus liquid (wild strain and mutant strain) was then dispensed in an amount of 50 μL/well. Mixing was performed using a plate mixer and culturing was performed for three days in a CO2 incubator. After removing the cultured supernatant of each well by suction, 100 μL of the cell solution buffer in the reporter measurement kit was dispensed thereto, and freezing was conducted in a refrigerator (−80° C.). The plates frozen in the refrigerator were defrosted at room temperature, then mixed using a plate mixer and centrifuged for 5 min at 1,200 rpm. The supernatant of each well was divided to 96-well microplates (BLACK) in the amount of 20 μL in each case. The chemiluminescence reagent in the reporter assay kit was dispensed in the amount of 100 μL in each case, and, after reacting for about 1 h at room temperature, the amount of luminescence was measured using a MicroBeta TRILUX.
# (§3) The degree of resistance (fold change (FC)) of each mutant strain was also calculated using the following formula. FC=EC50 of mutant strain/EC50 of wild strain (Results)
# (§4) The results of the example compounds relating to formula (I) of (A) are shown below. The […] in respect of mutant strain 1 (E138K/G140S/Q148H/N155H) and the FC in respect of mutant strain 2 (E92Q/E138T/G140S/Q148H) are shown in the Table.
# [3] = system: HIV mutant strain 2 (E92Q/E138T/G140S/Q148H); assay: Test Example 2: resistance evaluation test (HeLa-CD4 reporter), mutant strain 2; format: cell-based; settings: FC=EC50 of mutant strain/EC50 of wild strain; HeLa-CD4 cells
# Protocol: as §1, §2, §3, §4
# HIV [4] = assay: Test Example 3: test for confirmation of combined use effect; format: cell-based; parameters: key to D value (dosewise additivity value): <-0.1 synergy, -0.1 to 0.1 additive, >0.1 antagonism
# Text: The two compounds in respect of which the effect of combined use was desired to be examined were mixed in various ratios, and the anti-HIV activity (50% HIV inhibiting concentration) for each combination was found by the method of test example 1. […] A brief description of the method of calculating the D value is given below.
# The D value that is found by evaluating the anti-HIV activity of respective combinations of M concentrations of compound X1 and N concentrations of compound X2 is calculated by the following mathematical expression 1.
# The effect of combined use was evaluated in terms of the D value in accordance with the following criteria • −0.5 to −0.2: strong synergetic effect • −0.2 to −0.1: weak synergetic effect • […]: additive synergetic effect • 0.1 to 0.2: weak antagonism • 0.2 to 0.5: strong antagonism
# [5] = Test Example 8: metabolic stability test; format: in vitro ADME, human
# Protocol: The extent of metabolization of the compound according to the present invention in the liver was evaluated by reacting commercially available pooled human liver microsomes with the compound according to the present invention for a fixed time and calculating the remaining percentage by comparing the reaction sample with an unreacted sample.
# The reaction (oxidative reaction) was conducted for 0 min or 30 min at 37° C. in the presence of 1 mmol/L of NADPH, in a 0.2 mL buffer solution containing 0.5 mg of human liver microsome protein/mL (50 mmol/L Tris-HCl pH 7.4, 150 mmol/L potassium chloride, 10 mmol/L magnesium chloride). After the reaction, 50 μL of reaction liquid were added to 100 μL of methanol/acetonitrile=1/1 (v/v) solution, mixed, and centrifuged for 15 minutes at 3000 rpm. The compound according to the present invention in the centrifuged supernatant was quantified using LC/MS/MS or solid phase extraction (SPE)/MS; the residual amount of the compound according to the present invention after the reaction was calculated, taking the amount of the compound at the 0 min reaction point as 100%.
# [6] = combination with compound (B) Compound C (CAI)
# [7] = combination with compound (B) Darunavin (PI)
# [8] = combination with compound (B) Darunavir (PI)
# [9] = combination with compound (B) GS-6207 (CAI)
# [10] = combination with compound (B) GSK2838232 (maturation inhibitor)
# [11] = combination with compound (B) Lilpiperine (polymerase inhibitor)
# [12] = combination with compound (B) Ramipzin (3TC) (polymerase inhibitor)
# [13] = combination with compound (B) Rilpivirine (polymerase inhibitor)
# [14] = pooled human liver microsomes, 30 min at 37° C., NADPH, compound concentration 0.5 μmol/L
# [15] = combination with compound (B) I′-189 (INLAI)
# [16] = combination with compound (B) VM-1500 (polymerase inhibitor)
# [17] = human, microsomes, 0.5 h, 0.5 μmol/L, pH 7.4
smiles,measurement,setting,value
CC(C)N1C(=O)c2c(O)c(=O)c(C(=O)NCc3ccc(F)cc3F)cn2N2CCCC[C@@H]12 [Compound I-004],EC50,HIV [1],2.5 nM
CC(C)N1C(=O)c2c(O)c(=O)c(C(=O)NCc3c(F)cc(F)cc3F)cn2N2CCOC[C@@H]12 [II-022],EC50,HIV [1],0.39 nM
C[C@H]1C[C@H]2N(C)C(=O)c3c(O)c(=O)c(C(=O)NCc4cccc(Cl)c4F)cn3N2C1 [II-036],FC in respect of mutant strain 1 (E138K/G140S/Q148H/N155H),[2],15
same,FC in respect of mutant strain 2 (E92Q/E138T/G140S/Q148H),[3],7.9
same,D value (dosewise additivity value),HIV [4]; [6],0.032
same,effect of combined use,HIV [4]; [6],Additive (−0.1 to −0.1: additive synergetic effect)
same,D value (dosewise additivity value),HIV [4]; [7],−0.115
same,effect of combined use,HIV [4]; [8],Weak synergy (−0.2 to −0.1: weak synergetic effect)
same,D value (dosewise additivity value),HIV [4]; [9],−0.117
same,effect of combined use,HIV [4]; [9],Weak synergy (−0.2 to −0.1: weak synergetic effect)
same,D value (dosewise additivity value),HIV [4]; [10],0.021
same,effect of combined use,HIV [4]; [10],Additive (−0.1 to −0.1: additive synergetic effect)
same,effect of combined use,HIV [4]; [11],Additive (−0.1 to −0.1: additive synergetic effect)
same,D value (dosewise additivity value),HIV [4]; [12],−0.184
same,effect of combined use,HIV [4]; [12],Weak synergy (−0.2 to −0.1: weak synergetic effect)
same,D value (dosewise additivity value),HIV [4]; [13],−0.044
same,Remaining percentage,[5]; [14],97.4%
CCN1C(=O)c2c(O)c(=O)c(C(=O)NCc3cccc(C(F)(F)F)c3F)cn2N2CCCC[C@@H]12 [II-074],EC50,HIV [1],18 nM
CCN1C(=O)c2c(O)c(=O)c(C(=O)NCc3ccc(C#N)cc3)cn2N2CCCC[C@@H]12 [II-090],EC50,HIV [1],18 nM
CN1C(=O)c2c(O)c(=O)c(C(=O)NCc3cccc(Cl)c3F)cn2N2CCCC[C@@H]12 [II-092],FC in respect of mutant strain 1 (E138K/G140S/Q148H/N155H),[2],6.8
same,FC in respect of mutant strain 2 (E92Q/E138T/G140S/Q148H),[3],7.7
same,D value (dosewise additivity value),HIV [4]; [6],0.056
same,effect of combined use,HIV [4]; [6],Additive (−0.1 to −0.1: additive synergetic effect)
same,D value (dosewise additivity value),HIV [4]; [7],−0.117
same,effect of combined use,HIV [4]; [8],Weak synergy (−0.2 to −0.1: weak synergetic effect)
same,D value (dosewise additivity value),HIV [4]; [9],−0.093
same,effect of combined use,HIV [4]; [9],Additive (−0.1 to −0.1: additive synergetic effect)
same,D value (dosewise additivity value),HIV [4]; [10],0.000
same,effect of combined use,HIV [4]; [10],Additive (−0.1 to −0.1: additive synergetic effect)
same,effect of combined use,HIV [4]; [11],Additive (−0.1 to −0.1: additive synergetic effect)
same,D value (dosewise additivity value),HIV [4]; [12],−0.118
same,effect of combined use,HIV [4]; [12],Weak synergy (−0.2 to −0.1: weak synergetic effect)
same,D value (dosewise additivity value),HIV [4]; [13],−0.022
same,Remaining percentage,[5]; [14],101%
CCN1C(=O)c2c(O)c(=O)c(C(=O)NCc3c(F)cc(F)cc3F)cn2N2C[C@@H](C)CC[C@@H]12 [II-096],FC in respect of mutant strain 1 (E138K/G140S/Q148H/N155H),[2],6.4
same,FC in respect of mutant strain 2 (E92Q/E138T/G140S/Q148H),[3],8.9
same,D value (dosewise additivity value),HIV [4]; [6],0.065
same,effect of combined use,HIV [4]; [6],Additive (−0.1 to −0.1: additive synergetic effect)
same,D value (dosewise additivity value),HIV [4]; [7],−0.130
same,effect of combined use,HIV [4]; [8],Weak synergy (−0.2 to −0.1: weak synergetic effect)
same,D value (dosewise additivity value),HIV [4]; [9],−0.125
same,effect of combined use,HIV [4]; [9],Weak synergy (−0.2 to −0.1: weak synergetic effect)
same,D value (dosewise additivity value),HIV [4]; [10],0.001
same,effect of combined use,HIV [4]; [10],Additive (−0.1 to −0.1: additive synergetic effect)
same,D value (dosewise additivity value),HIV [4]; [15],0.070
same,effect of combined use,HIV [4]; [15],Additive (−0.1 to −0.1: additive synergetic effect)
same,effect of combined use,HIV [4]; [11],Additive (−0.1 to −0.1: additive synergetic effect)
same,D value (dosewise additivity value),HIV [4]; [12],−0.177
same,effect of combined use,HIV [4]; [12],Weak synergy (−0.2 to −0.1: weak synergetic effect)
same,D value (dosewise additivity value),HIV [4]; [13],−0.035
same,D value (dosewise additivity value),HIV [4]; [16],−0.115
same,effect of combined use,HIV [4]; [16],Weak synergy (−0.2 to −0.1: weak synergetic effect)
same,Remaining percentage,[5]; [14],90.7%
CN1C(=O)c2c(O)c(=O)c(C(=O)NCc3cccc(Cl)c3F)cn2N2CCCC[C@@]12C [II-129],FC in respect of mutant strain 1 (E138K/G140S/Q148H/N155H),[2],44
same,FC in respect of mutant strain 2 (E92Q/E138T/G140S/Q148H),[3],26
same,Remaining percentage,[5]; [14],88.6%
CN1C(=O)c2c(O)c(=O)c(C(=O)NCc3cccc(Cl)c3F)cn2N2[C@H]3COC[C@H]3C[C@@H]12 [II-132],FC in respect of mutant strain 1 (E138K/G140S/Q148H/N155H),[2],76
same,FC in respect of mutant strain 2 (E92Q/E138T/G140S/Q148H),[3],17
same,Remaining percentage,[5]; [17],101%
CC(C)N1C(=O)c2c(O)c(=O)c(C(=O)NCc3c(F)cc(F)cc3F)cn2N2[C@H]3COC[C@H]3C[C@@H]12 [II-133],FC in respect of mutant strain 1 (E138K/G140S/Q148H/N155H),[2],17
same,FC in respect of mutant strain 2 (E92Q/E138T/G140S/Q148H),[3],34
same,Remaining percentage,[5]; [17],73.3%
CN1C(=O)c2c(O)c(=O)c(C(=O)NCc3cccc(Cl)c3F)cn2N2C[C@@H]3CCC[C@@H](C3)[C@@H]12 [II-139],FC in respect of mutant strain 1 (E138K/G140S/Q148H/N155H),[2],18
same,FC in respect of mutant strain 2 (E92Q/E138T/G140S/Q148H),[3],10
same,Remaining percentage,[5]; [14],75.4%
CCN1C(=O)c2c(O)c(=O)c(C(=O)NCc3ccc(F)cc3F)cn2N2[C@@H](C)c3cc(F)ccc3[C@@H]12 [II-140],EC50,HIV [1],0.67 nM
CCN1C(=O)c2c(O)c(=O)c(C(=O)NCc3ccc(F)cc3F)cn2N2C[C@@H]3CCC[C@@H](O3)[C@@H]12 [II-150],FC in respect of mutant strain 1 (E138K/G140S/Q148H/N155H),[2],26
same,FC in respect of mutant strain 2 (E92Q/E138T/G140S/Q148H),[3],16
same,Remaining percentage,[5]; [14],98.6%
CCN1C(=O)c2c(O)c(=O)c(C(=O)NCc3ccc(F)nc3F)cn2N2C[C@@H]3CC[C@@H](O3)[C@@H]12 [II-152],FC in respect of mutant strain 1 (E138K/G140S/Q148H/N155H),[2],36
same,FC in respect of mutant strain 2 (E92Q/E138T/G140S/Q148H),[3],25
same,Remaining percentage,[5]; [14],105%

# From patent US12564595B2, “Prophylactic and therapeutic pharmaceutical agent for HIV infectious diseases characterized by comprising combination of integrase inhibitor and anti-HIV agent” (Shionogi & Co., Ltd., priority 2019, dated 2026)
